Values joined by “and” are separate entries in the source; they are usually repeats but may differ in a detail not shown here. Equal values may be shown once.
Experiments:
[1] = target: T1, 5-LOX (Homo sapiens, UniProt P09917); test: 5-LOX product formation in human activated PMNL (A23187); assay type: cell-based; design: Freshly isolated PMNL (5 × 10^6) suspended in PBS pH 7.4 with 1 mg/mL glucose were preincubated with the test compounds; endogenous in cells; host or cells: human PMNL from donor blood; remaining activity: dose or concentration left out as unconfirmed; conditions: for remaining activity at 10 µM: read-out: 5-LOX residual activity in PMNL (%) at 10 μM; for remaining activity: PMNL, read-out: 5-LO residual activity in PMNL (%)
T1 sequence (P09917 1-674): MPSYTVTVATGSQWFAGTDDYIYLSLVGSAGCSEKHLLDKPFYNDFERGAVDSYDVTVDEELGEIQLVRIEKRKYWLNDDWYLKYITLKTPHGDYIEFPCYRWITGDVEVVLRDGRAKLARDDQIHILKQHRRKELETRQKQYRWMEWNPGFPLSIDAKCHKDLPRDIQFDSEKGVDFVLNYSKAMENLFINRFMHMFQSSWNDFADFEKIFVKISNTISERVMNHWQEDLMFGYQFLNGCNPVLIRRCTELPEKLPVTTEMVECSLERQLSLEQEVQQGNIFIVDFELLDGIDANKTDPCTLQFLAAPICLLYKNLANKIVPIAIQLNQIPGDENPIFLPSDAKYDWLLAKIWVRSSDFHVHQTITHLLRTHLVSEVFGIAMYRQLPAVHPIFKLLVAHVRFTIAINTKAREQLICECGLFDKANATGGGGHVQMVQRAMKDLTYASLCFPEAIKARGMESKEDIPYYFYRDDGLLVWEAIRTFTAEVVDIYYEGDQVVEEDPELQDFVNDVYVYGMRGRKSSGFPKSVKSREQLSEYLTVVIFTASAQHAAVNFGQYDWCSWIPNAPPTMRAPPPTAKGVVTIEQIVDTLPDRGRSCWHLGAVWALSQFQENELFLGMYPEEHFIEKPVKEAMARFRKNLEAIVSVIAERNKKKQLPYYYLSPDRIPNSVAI
Description: Human PMNL were freshly isolated from leukocyte concentrates that were obtained from the Institute for Transfusion Medicine of the University Hospital Jena (Germany). […] These volunteers regularly donated blood (every 8–12 weeks) and were physically inspected by a clinician. […] Leukocytes were concentrated by centrifugation (4000g/20 min/20 °C) of freshly withdrawn blood. […] PMNL were obtained from the cell pellet. […] The reaction was stopped with an equal volume of methanol containing PGB1 (200 ng) as internal standard. Major 5-LOX products (all-trans isomers of LTB and 5-HETE, and additionally LTB4) were extracted and analyzed by RP-HPLC as described for the determination of cell-free 5-LOX activity.

[2] = Chemical stability in phosphate buffer pH 7.4; assay type: physicochemical; conditions: 5 μM
Source text: The chemical and metabolic stabilities of compounds 6, 27, 28, 30, and 36 were monitored using a UHPLC system (Shimadzu, Kyoto, Japan) consisting of a CBM-40 Lite controller, two LC-40B X3 solvent delivery modules, an SPD-M40 photodiode array detector, a CTO-30A column oven and, a SIL-40AC X3 autosampler. The UHPLC system was coupled online to LCMS-2020 single quadrupole mass spectrometer (Shimadzu, Kyoto, Japan) equipped with an electrospray ionization (ESI) source operating in positive mode.
The chromatographic separation was accomplished on a Luna Omega 1.6 μm Polar C18 100 Å, 100 mm × 2.1 mm (Phenomenex, Bologna, Italy) maintained at 40 °C. The optimal mobile phase consisted of 0.1% HCOOH/H2O v/v (A) and 0.1% HCOOH/ACN v/v (B) delivered at a constant flow rate of 0.3 mL min^–1. Analysis was performed in gradient elution as follows: 0–8.00 min, 30–95% B; 8.00–10.00 min, isocratic to 95% B, then 5 min for column re-equilibration.
The ESI was operated in positive mode, with the following parameters: interface temperature, 350 °C; interface voltage, 4.5 kV; DL (desolvation line) temperature, 250 °C; block heater temperature, 200 °C; nebulizing gas flow (N2), 1.5 L min^–1; drying gas pressure, 15 L min^–1. Quantification was performed in SIM (single-ion monitoring) mode.
For the calibration curves, the primary stock solutions (10 mM) of compounds 6, 27, 28, 30, and 36 were prepared in DMSO. The working standard solutions were prepared by serial dilution of the stock solutions in methanol to obtain necessary concentrations (0.25–10 μM). A solution containing an internal standard (IS: tolbutamide) was prepared at 10 μM in methanol. Quantitation of compounds 6, 27, 28, 30, and 36 was performed using linear regression of the response ratios obtained from the calibration curve to calculate the corresponding amount (6: y = 1.97175x + 0.53508, R^2 = 0.9998; 27: y = 2.90980x + 0.03831, R^2 = 0.9993; 28: y = 2.05962x + 0.02242, R^2 = 0.9994; 30: y = 1.98080x + 0.14962, R^2 = 0.9997; 36: y = 4.59526x – 0.13459, R^2 = 0.9991).
1.25 μL of test compounds (5 μM final incubation concentration) was incubated in 200 μL of phosphate buffer at pH 7.4. At each specified time point (0, 0.5, 1, 1.5, and 2 h), the analyte was removed into 200 μL of ice-cold methanol containing internal standard (tolbutamide) to stop degradation. Finally, the concentration of the test compound was quantified by LC-MS. The percentage of compound remaining (relative to the 0 min time point) at the individual time points is then reported. All experiments were performed in triplicate.

[3] = 0.5 h, compound remaining relative to 0 min

Compound: O=C(Nc1ccc2c(c1)CCN2Cc1ccc(F)cc1)NC12C[C@H]3C[C@@H](C1)C[C@@H](C2)C3 [Compound 6, 1-((3S,5S,7S)-Adamantan-1-yl)-3-(1-(4-fluorobenzyl)indolin-5-yl)urea]
- remaining activity at 10 µM ([1]; human activated PMNL): 35.4 ± 3.1%
- remaining activity [1]: 35.4 ± 3.1%
- IC50 ([1]; human activated PMNL): 240 nM and 243 nM
- chemical stability in phosphate buffer (pH 7.4) [2, 3]: 97.9 ± 3.5%
- chemical stability in phosphate buffer (pH 7.4) ([2]; 1.0 h): 100.7 ± 4.3%
- chemical stability in phosphate buffer (pH 7.4) ([2]; 1.5 h): 100.5 ± 3.5%
- chemical stability in phosphate buffer (pH 7.4) ([2]; 2.0 h): 102.4 ± 0.1%

Compound: O=C(NCC12C[C@H]3C[C@@H](C1)C[C@@H](C2)C3)Nc1ccc2c(ccn2Cc2ccc(F)cc2)c1 [Compound 27, 1-(((3R,5R,7R)-Adamantan-1-yl)methyl)-3-(1-(4-fluorobenzyl)-1H-indol-5-yl)urea]
- remaining activity at 10 µM ([1]; human activated PMNL): 59.4 ± 6.7%
- remaining activity [1]: 59.4 ± 6.7%
- chemical stability in phosphate buffer (pH 7.4) [2, 3]: 99.2 ± 1.7%
- chemical stability in phosphate buffer (pH 7.4) ([2]; 1.0 h): 95.5 ± 4.5%
- chemical stability in phosphate buffer (pH 7.4) ([2]; 1.5 h): 98.9 ± 0.2%
- chemical stability in phosphate buffer (pH 7.4) ([2]; 2.0 h): 96.4 ± 0.5%

Compound: CC(C)c1ccc(Cn2ccc3cc(NC(=O)NCC45C[C@H]6C[C@@H](C4)C[C@@H](C5)C6)ccc32)cc1 [Compound 28, 1-(((3R,5R,7R)-Adamantan-1-yl)methyl)-3-(1-(4-isopropylbenzyl)-1H-indol-5-yl)urea]
- remaining activity at 10 µM ([1]; human activated PMNL): 93.6 ± 4.8%
- remaining activity [1]: 93.6 ± 4.8%
- chemical stability in phosphate buffer (pH 7.4) [2, 3]: 102.0 ± 2.7%
- chemical stability in phosphate buffer (pH 7.4) ([2]; 1.0 h): 101.7 ± 1.9%
- chemical stability in phosphate buffer (pH 7.4) ([2]; 1.5 h): 99.7 ± 2.3%
- chemical stability in phosphate buffer (pH 7.4) ([2]; 2.0 h): 102.4 ± 1.8%

Compound: O=C(NCC12C[C@H]3C[C@@H](C1)C[C@@H](C2)C3)Nc1ccc2c(ccn2CCc2ccc(F)cc2)c1 [Compound 30, 1-(((3R,5R,7R)-Adamantan-1-yl)methyl)-3-(1-(4-fluorophenethyl)-1H-indol-5-yl)urea]
- remaining activity at 10 µM ([1]; human activated PMNL): 65.1 ± 6.2%
- remaining activity [1]: 65.1 ± 6.2%
- chemical stability in phosphate buffer (pH 7.4) [2, 3]: 102.5 ± 1.1%
- chemical stability in phosphate buffer (pH 7.4) ([2]; 1.0 h): 100.3 ± 1.9%
- chemical stability in phosphate buffer (pH 7.4) ([2]; 1.5 h): 99.6 ± 0.2%
- chemical stability in phosphate buffer (pH 7.4) ([2]; 2.0 h): 102.4 ± 3.5%

Compound: O=C(NCC12C[C@H]3C[C@@H](C1)C[C@@H](C2)C3)Nc1ccc2c(ccn2C(=O)c2ccc(F)cc2)c1 [Compound 36, 1-(((3R,5R,7R)-Adamantan-1-yl)methyl)-3-(1-(4-fluorobenzoyl)-1H-indol-5-yl)urea]
- remaining activity at 10 µM ([1]; human activated PMNL): 58.1 ± 5.5%
- remaining activity [1]: 58.1 ± 5.5%
- chemical stability in phosphate buffer (pH 7.4) [2, 3]: 96.3 ± 3.2%
- chemical stability in phosphate buffer (pH 7.4) ([2]; 1.0 h): 95.2 ± 1.8%
- chemical stability in phosphate buffer (pH 7.4) ([2]; 1.5 h): 99.8 ± 2.1%
- chemical stability in phosphate buffer (pH 7.4) ([2]; 2.0 h): 92.4 ± 2.0%
